Measured values taken from patent US20150024008A1, “Methods and Compositions Involving Induced Senescent Cells for Cancer Treatment” (THE UNIVERSITY OF CHICAGO, priority 2011, published 2015).

Legend:
[1] = system: MCF7 Tet-On GFP-IBD human breast cancer cell line; assay: GFP-53BP1 IRIF persistence, senescence and growth in MCF7 Tet-On GFP-IBD cells; assay type: cell-based
Experimental: To examine the effect of glucose metabolism on IRIF persistence in living cells, we exploited our previously described IRIF reporter consisting of GFP fused to the 53BP1 IRIF binding domain, expressed under tetracycline-inducible control. MCF7^Tet-On GFP-IBD cells were seeded at 3×10^5 per Fluorodish (World Precision Instruments, Inc.) in high-glucose (4.5 g/L) DMEM (Invitrogen) media supplemented with 10% Tet system-approved fetal bovine serum (Clontech) and 1 μg/mL doxycycline (Sigma). Next day media was exchanged for either high-glucose (4.5 g/L) or low-glucose (1 g/L) DMEM with 10% FBS and 1 μg/mL doxycycline. […] Cells were fixed at 3 h and 24 h for IRIF imaging and at day 5 for SA-βGal staining. Images were captured on Zeiss Axiovert 200M and a Hammatsu Orca ER FireWire digital monochrome (IRIF) or Zeiss Axiocam color digital camera (SA-βGal staining) controlled by OpenLab software.
To investigate what step of glycolysis is critical for improvement of DNA repair we used set of well established glycolysis inhibitors including glucose transporter Glut1 inhibitor, HXKi, GAPHi, PKi, LDHi. […] Given that elevated glycolysis predispose tumor cells for therapeutic resistance similar experiment has been performed on IR resistant PANC02 mouse pancreatic and U87 human glioma cell lines.

[2] = system: murine pancreatic cancer cell line p1048; assay: SA-βGal staining and cytokine expression in p1048 cells; assay type: cell-based, mouse
Experimental: (§1) Slides were deparaffinized in xylene and hydrated with alcohol before being placed in 0.3% H2O2/methanol blocking solution to quench endogenous peroxidase activity followed by subsequent antigen unmasking in EDTA buffer. […] Reactions were developed with 3,3′-diaminobenzidine chromogen or Vulcan Red, respectively, and counterstained with hematoxylin. Negative controls were obtained by using isotype-matched primary antibody IgG. The SA-βGal assay was performed using the Senescence Beta-galactosidase Staining Kit (Cell Signaling) (Dunn 2006). All images were captured using Zeiss Axiovert 200M and Zeiss Axiocam color digital camera controlled by OpenLab software with a 20× objective. All primers sequence and running protocols for RT-PCR can be found in reference Table 2 (Lugade 2008, Zhang 2008).

bone marrow DCs = assay: BM-DC coculture with veliparib/IR treated B16 cells; assay type: cell-based, mouse
Excerpt: B16SIY cells were maintained in a full medium supplemented with 10% FCS. The cells were pretreated with 10 μm veliparib then exposed to 6 or 12 Gy x-ray or IR alone (Gammacell 1000; MDS Nordion, Kanata, Ontario, Canada), then cocultured with immature BM-DC in a transwell system. 3 days later BM-DC were collected and analyzed by FACS for cell surface maturation marker and intracellular cytokines. […]

B16 melanoma cells = assay: RT-qPCR of SASP cytokines in B16 cells treated in vitro; assay type: cell-based, mouse; conditions: veliparib+IR
Experimental: as §1
(§2) B16SIY cells were maintained in a full medium supplemented with 10% FCS. The cells were pretreated with 10 μm veliparib then exposed to 6 or 12 Gy x-ray or IR alone (Gammacell 1000; MDS Nordion, Kanata, Ontario, Canada), then cocultured with immature BM-DC in a transwell system. 3 days later BM-DC were collected and analyzed by FACS for cell surface maturation marker and intracellular cytokines. These BM-DC were used to stimulate sorted CD4+ cells (Lugade 2008, Zhang 2008).

[3] = system: B16SIY murine melanoma tumors; assay: H/E and SA-βGal staining of treated B16 tumors; assay type: in vivo, mouse; conditions: veliparib+IR vs IR or veliparib alone; 7 days after IR
Experimental: (§3) Mouse melanoma cell line B16SIY (5×10^5 cells) were implanted subcutaneously in the flank of 6 to 8-wk-old C57/B6 mice. Tumors were allowed to grow until they reached a volume of about 100 to 150 mm^3 (approximately 2 wk) before treatment with PARP inhibitor veliparib (vrib, (R)-2-(2-methylpyrrolidin-2-yl)-1H-benzo[d]imidazole-4-carboxamide, ABT-888) and/or IR (Dunn 2006). Mice received 0.5 mg of veliparib in water twice daily by oral gavage as indicated. CD8^+, CD4^+, NK cells were depleted by anti-CD8 or anti-CD4 or anti-NK1.1, respectively, 1 d before IR. Depletion was confirmed by checking peripheral blood samples by flow cytometry. Macrophages were depleted with liposomal clodronate starting 1 d before IR. Depletion was confirmed by checking splenocyte and tumor samples by flow cytometry (Zhang 2008). Samples were collected 2 to 7 days later, and analyzed by flow cytometry using a BD LSRII flow cytometer. Blood samples were gated in forward scatter and side scatter on smaller cells for CD8, CD4 analysis, larger cells for NK and macrophage, and the percentage of different cell types were determined (Lugade 2008, Zhang 2010).
Slides were deparaffinized in xylene and hydrated with alcohol before being placed in 0.3% H2O2/methanol blocking solution to quench endogenous peroxidase activity followed by subsequent antigen unmasking in EDTA buffer. […]

[4] = system: B16SIY murine melanoma tumors; assay: B16SIY tumor growth after veliparib and IR; assay type: in vivo, mouse; conditions: veliparib 0.5 mg twice daily oral + 6 or 12 Gy IR vs IR alone; C57/B6 mice
Experimental: as §3

[5] = system: B16SIY murine melanoma cells; assay: DNA damage foci (γH2AX, 53BP1) and SA-βGal senescence in B16SIY cells in vitro; assay type: cell-based, mouse; conditions: with IR
Experimental: as §1, §2

[6] = system: bone marrow dendritic cells (CD11c); assay: Coculture of DCs with senescent TRAMP-C2 cells, immunostimulation assay; conditions: CD45 positive cells
Experimental: Briefly 2×10^6 of collected BM cells were resuspended in 10 ml of complete medium (CM) (RPMI, 10% FBS, pen/strep, HEPES) +20 ng/ml mouse granulocyte-macrophage colony-stimulating factor (GM-CSF). BM were transferred to uncoated plastic Petri dish. On a third day 10 ml of fresh CM+20 ng/ml GM-CSF were added. Immature dendritic cells (DC) were harvested on day 5, were suspended at 5×10^6 cells/ml in ice-cold freezing medium (CM+10 ng/ml GM-CSF+10% DMSO) and frozen for future experiments.
Assayed cells (TRAMP-C2) were plated 2.5×10^5 p100 plates and next day irradiated (6Gy) and 25 μM veliparib to obtained senescent phenotype. For TRAMP-C2 the coculture was started 6 days after cell irradiation and veliparib treatment. DCs were thawed and plated in CM+10 ng/ml GM-CSF 24 hours before they were cocultured with senescent TRAMP-C2 cells. In a day when co-culture started DCs were detached with trypsin and washed twice with phosphate buffered saline (PBS) to remove GM-CSF. Senescent TRAMP-C2 cells culture was washed with PBS and medium also changed to remove veliparib. Washed DCs and senescent cells were cocultured in fresh medium for 2-3 days.
After coculture medium was collected to harvest non-adherent cells fraction. […]
As CD45 is marker of immune cells, only CD45 positive cells were analyzed and TRAMP-C2 cells could be excluded from analysis as CD45 negative.

B16 tumors = assay: RT-qPCR and immunohistochemistry of treated B16 tumors; assay type: in vivo, mouse
Experimental: as §3, §1

[7] = system: TUBO murine mammary tumor cells; assay: Senescence, SASP expression and ATP release of TUBO cells in low or high glucose media; assay type: cell-based, mouse
Experimental: as §1

[8] = veliparib+IR, 7 days after irradiation

C[C@]1(c2nc3c(C(N)=O)cccc3[nH]2)CCCN1 [veliparib, (R)-2-(2-methylpyrrolidin-2-yl)-1H-benzo[d]imidazole-4-carboxamide]
effect on cisplatin-induced foci persistence, senescence and growth suppression ([1]; combined with cisplatin): enhances this effect
accelerated senescence ([1]; combined with irradiation): induces accelerated senescence
persistence of GFP-53BP1 foci (IRIF) ([1]; combined with irradiation): enhance radiation induced persistence of GFP-53BP1 foci
foci persistence and senescence in presence of estrogen ([1]; irradiated cells, estrogen): overcomes the activity of estrogen
growth ([1]; veliparib+6 Gy vs veliparib or radiation alone): causes growth suppression
accelerated senescence and SASP ([2]; veliparib and 12 Gy): entering accelerated senescence and displaying an altered SASP
SA-βGal staining [2, 8]: induced SA-βGal staining
cytokine expression [2, 8]: upregulation of multiple cytokines
CD8+ cell proliferation stimulated by cocultured DCs (bone marrow DCs; DCs from coculture with veliparib+IR treated B16 cells): better stimulated CD8+ cell proliferation
CD11c+ cell proliferation (bone marrow DCs; coculture with B16 cells treated with veliparib+6 Gy vs untreated or irradiated cells): increased CD11c+ cell proliferation
CD11c+ cell maturation (MHC-II+, CD86+) (bone marrow DCs; coculture with veliparib+IR-treated cells vs radiation only): enhanced CD11c+ cell maturation
chemokine expression (CCL2, CCL3, CCL5, CXCL9, CXCL10, CXCL11) (B16 melanoma cells): upregulated
IFNβ transcription (B16 melanoma cells; 7 days after 6 Gy): increased transcription of IFNβ
IL-6 transcription (B16 melanoma cells; 7 days after 6 Gy): decreased IL-6
enlarged cells and SA-βGal staining in tumors [3]: greater numbers of enlarged cells and more intense SA-βGal staining
tumor regrowth [4]: markedly delayed tumor regrowth
DNA damage foci resolution (γH2AX, p53BP1) ([5]; 24 h): delayed DNA damage foci resolution
accelerated senescence (cell morphology, SA-βGal) ([5]; day 7): induced accelerated senescence
population of CD11c positive cells ([6]; TRAMP-C2 treated with 0 Gy+25 μM veliparib): 5.2%
population of CD11c positive cells ([6]; TRAMP-C2 treated with IR (6Gy)+25 μM veliparib): 36.7%
SASP gene expression in tumors (IFNβ, IFNγ, CCL2, CCL5, CXCL9, CXCL10, CXCL11) (B16 tumors; veliparib+IR): increased expression of SASP genes
immunohistochemistry of enlarged senescent tumor cells (B16 tumors; veliparib+IR): distinct strong staining of IFNβ, CCL2, CXCL9 and CXCL10
p21 and p16 expression in tumors (B16 tumors; veliparib+IR vs IR alone, normalized to GAPDH): significantly increased expression of p21 and p16
cell survival ([7]; IR and veliparib+IR, low glucose medium): more cells survived
senescent cell morphology and SA-βGal expression ([7]; veliparib and 12 Gy, data not shown): fail to display either the characteristic cell morphology or SA-βGal expression
IFNβ and CCL5 expression kinetics ([7]; veliparib+IR, high glucose media): only showed low level IFNβ and CCL5 at day 7
SA-βGal staining ([7]; veliparib+IR, low glucose media vs high glucose): More TUBO cells displayed enhanced senescence-associated β-galactosidase staining
extracellular ATP release ([7]; veliparib+IR, low glucose media, higher density): higher ATP was detected
IFNβ and CXCL11 expression kinetics ([7]; veliparib+IR, low glucose medium): started at day 5 through day 10
cell apoptosis ([7]; veliparib+IR, low vs high glucose medium): no increased cell apoptosis
